Where “and” joins values, the source holds several entries; their conditions need not be identical. Identical values can stand only once. Toxic doses and inconclusive results are not listed.
Tested on: BDF1 mice, P388 leukemia ip, median survival T/C
Assay: NCI In Vivo Anticancer Drug Screen. Data for tumor model P388 Leukemia (intraperitoneal) in B6D2F1 (BDF1) mice
Conditions: endpoint: median survival time, higher = longer survival
Summary of the method: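 Survival ratio, drug arm over vehicle arm, in mice with a transplanted tumour.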

[1] = dose: 100.0 mg/kg/injection, schedule: Q01DX009 (ip), vehicle: Klucel (hydroxypropylcellulose) (HPC)
[2] = dose: 100.0 mg/kg/injection, schedule: Q04DX003 (ip), vehicle: Klucel (hydroxypropylcellulose) (HPC)
[3] = dose: 200.0 mg/kg/injection, schedule: Q01DX009 (ip), vehicle: Klucel (hydroxypropylcellulose) (HPC)
[4] = dose: 200.0 mg/kg/injection, schedule: Q04DX003 (ip), vehicle: Klucel (hydroxypropylcellulose) (HPC)
[5] = dose: 400.0 mg/kg/injection, schedule: Q04DX003 (ip), vehicle: Klucel (hydroxypropylcellulose) (HPC)
[6] = dose: 12.5 mg/kg/injection, schedule: Q04DX003 (ip), vehicle: saline with Tween-80
[7] = dose: 25.0 mg/kg/injection, schedule: Q04DX003 (ip), vehicle: saline with Tween-80
[8] = dose: 50.0 mg/kg/injection, schedule: Q01DX009 (ip), vehicle: saline with Tween-80
[9] = dose: 50.0 mg/kg/injection, schedule: Q04DX003 (ip), vehicle: saline with Tween-80
[10] = dose: 100.0 mg/kg/injection, schedule: Q01DX009 (ip), vehicle: saline with Tween-80
[11] = dose: 200.0 mg/kg/injection, schedule: Q01DX009 (ip), vehicle: saline with Tween-80
[12] = dose: 100.0 mg/kg/injection, schedule: Q04DX003 (ip), vehicle: saline with Tween-80
[13] = dose: 200.0 mg/kg/injection, schedule: Q04DX003 (ip), vehicle: saline with Tween-80
[14] = dose: 400.0 mg/kg/injection, schedule: Q01DX009 (ip), vehicle: saline with Tween-80
[15] = dose: 400.0 mg/kg/injection, schedule: Q04DX003 (ip), vehicle: saline with Tween-80

SMILES: CC(O)c1ccc(-c2ccccc2)cc1 (stereo not drawn)
- T/C [1]: 120 % of control
- T/C [2]: 95 % of control
- T/C [3]: 105 % of control
- T/C [4]: 100 % of control
- T/C (dose: 400.0 mg/kg/injection, schedule: Q01DX009 (ip), vehicle: Klucel (hydroxypropylcellulose) (HPC)): 110 % of control
- T/C [5]: 100 % of control

SMILES: FCc1nc2nc(Cl)c(Cl)nc2[nH]1
- T/C (dose: 1.0 mg/kg/injection, schedule: Q01DX009 (ip), vehicle: saline): 96 % of control
- T/C (dose: 2.0 mg/kg/injection, schedule: Q01DX009 (ip), vehicle: saline): 99 % of control and 100 % of control
- T/C (dose: 4.0 mg/kg/injection, schedule: Q01DX009 (ip), vehicle: saline): 90 % of control and 105 % of control
- T/C (dose: 8.0 mg/kg/injection, schedule: Q01DX009 (ip), vehicle: saline): 99 % of control
- T/C (dose: 16.0 mg/kg/injection, schedule: Q01DX009 (ip), vehicle: saline): 100 % of control
- T/C (dose: 50.0 mg/kg/injection, schedule: Q04DX003 (ip), vehicle: saline): 104 % of control
- T/C (dose: 100.0 mg/kg/injection, schedule: Q04DX003 (ip), vehicle: saline): 101 % of control

SMILES: CC(c1ccccc1)N1CCS(=O)(=O)CC1 (stereo not drawn)
- T/C (dose: 50.0 mg/kg/injection, schedule: Q01DX009 (ip), vehicle: Klucel (hydroxypropylcellulose) (HPC)): 93 % of control
- T/C [1]: 106 % of control
- T/C [3]: 90 % of control

SMILES: FC(F)(F)c1ccc2c(c1)N(CCCN1CCN(CCOc3ccccc3)CC1)c1ccccc1S2
- T/C (dose: 6.25 mg/kg/injection, schedule: Q04DX003 (ip), vehicle: saline with Tween-80): 96 % of control and 115 % of control
- T/C [6]: 93 % of control and 115 % of control
- T/C [7]: 114 % of control and 122 % of control

SMILES: ClC1OC(Cl)C(Cl)OC1Cl (stereo not drawn)
- T/C (dose: 6.25 mg/kg/injection, schedule: Q01DX009 (ip), vehicle: Klucel (hydroxypropylcellulose) (HPC)): 105 % of control
- T/C (dose: 12.5 mg/kg/injection, schedule: Q01DX009 (ip), vehicle: Klucel (hydroxypropylcellulose) (HPC)): 110 % of control

SMILES: CCCC(O)Cc1c[nH]c(=O)[nH]c1=O (stereo not drawn)
- T/C (dose: 6.25 mg/kg/injection, schedule: Q01DX009 (ip), vehicle: saline with Tween-80): 101 % of control
- T/C (dose: 12.5 mg/kg/injection, schedule: Q01DX009 (ip), vehicle: saline with Tween-80): 92 % of control
- T/C [6]: 101 % of control
- T/C (dose: 25.0 mg/kg/injection, schedule: Q01DX009 (ip), vehicle: saline with Tween-80): 106 % of control
- T/C [7]: 104 % of control
- T/C [8]: 93 % of control
- T/C [9]: 100 % of control

SMILES: O=S(=O)(CI)OCCCl
- T/C (dose: 50.0 mg/kg/injection, schedule: Q01DX005 (ip), vehicle: Klucel (hydroxypropylcellulose) (HPC)): 93 % of control
- T/C (dose: 100.0 mg/kg/injection, schedule: Q01DX005 (ip), vehicle: Klucel (hydroxypropylcellulose) (HPC)): 110 % of control

SMILES: CCOC(=O)c1c(C)cc(C)nc1[S][Sn]([Cl])([Cl])[S]c1nc(C)cc(C)c1C(=O)OCC
- T/C [8]: 99 % of control
- T/C [10]: 107 % of control
- T/C [11]: 106 % of control

SMILES: CCOC(=O)c1cc2sccc2[nH]1
- T/C [10]: 103 % of control
- T/C [12]: 104 % of control
- T/C [11]: 100 % of control
- T/C [13]: 109 % of control
- T/C [14]: 115 % of control
- T/C [15]: 113 % of control

SMILES: O=C1c2ccccc2S(=O)(=O)N1CC(O)COc1ccc(Cl)cc1 (stereo not drawn)
- T/C [12]: 104 % of control
- T/C [13]: 100 % of control
- T/C [15]: 95 % of control

SMILES: CC[N+](CC)(CC)CCCC[N+](CC)(CC)CC
- T/C (dose: 12.5 mg/kg/injection, schedule: Q01DX009 (ip), vehicle: water): 97 % of control
- T/C (dose: 25.0 mg/kg/injection, schedule: Q01DX009 (ip), vehicle: water): 95 % of control
- T/C (dose: 25.0 mg/kg/injection, schedule: Q04DX003 (ip), vehicle: water): 109 % of control
- T/C (dose: 50.0 mg/kg/injection, schedule: Q01DX009 (ip), vehicle: water): 100 % of control
- T/C (dose: 50.0 mg/kg/injection, schedule: Q04DX003 (ip), vehicle: water): 104 % of control

SMILES: O=[N+]([O-])c1ccccc1N/N=C\c1c(Cl)[nH]c2ccccc12
- T/C (dose: 200.0 mg/kg/injection, schedule: Q04DX002 (ip), vehicle: Klucel (hydroxypropylcellulose) (HPC)): 90 % of control
- T/C (dose: 400.0 mg/kg/injection, schedule: Q04DX002 (ip), vehicle: Klucel (hydroxypropylcellulose) (HPC)): 90 % of control

SMILES: NC(=O)c1ccccc1NC(=O)c1ccccc1C(=O)O
- T/C [8]: 99 % of control
- T/C [10]: 151 % of control
- T/C [11]: 153 % of control

SMILES: O=Nc1ccc(O)c(=O)cc1
- T/C (dose: 1.0 mg/kg/injection, schedule: Q01DX009 (ip), vehicle: saline with Tween-80): 109 % of control
- T/C (dose: 1.0 mg/kg/injection, schedule: Q04DX003 (ip), vehicle: saline): 104 % of control
- T/C (dose: 2.0 mg/kg/injection, schedule: Q01DX009 (ip), vehicle: saline with Tween-80): 109 % of control
- T/C (dose: 2.0 mg/kg/injection, schedule: Q04DX003 (ip), vehicle: saline): 104 % of control
- T/C (dose: 4.0 mg/kg/injection, schedule: Q01DX009 (ip), vehicle: saline with Tween-80): 90 % of control
- T/C (dose: 4.0 mg/kg/injection, schedule: Q04DX003 (ip), vehicle: saline): 116 % of control

SMILES: O=C1c2ccccc2C(=O)c2cc3cc(Cl)ccc3cc21
- T/C [2]: 90 % of control
- T/C [4]: 90 % of control
- T/C [5]: 90 % of control

SMILES: CCOC(=O)C(Cc1ccc(OC)c(OC)c1)C(Cc1ccc(OC)c(OC)c1)C(=O)OCC (stereo not drawn)
- T/C [10]: 90 % of control
- T/C [11]: 104 % of control

SMILES: Cc1ccc(C2=NNc3n[nH]c(=S)n3N2)cc1
- T/C [12]: 91 % of control
- T/C [13]: 95 % of control
- T/C [15]: 100 % of control

SMILES: Nc1nc2c(c(=O)[nH]1)NC(CCNc1ccc(C(=O)O)cc1)CN2 (stereo not drawn)
- T/C [12]: 86 % of control

SMILES: O=C1OC(c2ccc(O)cc2)(c2ccc(Oc3ccccc3)cc2)c2ccccc21 (stereo not drawn)
- T/C [10]: 97 % of control
- T/C [11]: 105 % of control
- T/C [14]: 99 % of control

SMILES: CC1c2ccccc2N(S(=O)(=O)c2ccccc2)C1C (stereo not drawn)
- T/C (dose: 100.0 mg/kg/injection, schedule: Q01DX009 (ip), vehicle: gum acacia): 107 % of control
- T/C (dose: 200.0 mg/kg/injection, schedule: Q01DX009 (ip), vehicle: gum acacia): 92 % of control
- T/C (dose: 400.0 mg/kg/injection, schedule: Q01DX009 (ip), vehicle: gum acacia): 100 % of control

SMILES: Cc1ccc(S(=O)(=O)N/N=C/c2ccccc2)cc1
- T/C (dose: 25.0 mg/kg/injection, schedule: Q04DX003 (ip), vehicle: Klucel (hydroxypropylcellulose) (HPC)): 93 % of control
- T/C (dose: 50.0 mg/kg/injection, schedule: Q04DX003 (ip), vehicle: Klucel (hydroxypropylcellulose) (HPC)): 97 % of control
- T/C [2]: 103 % of control
- T/C [5]: 106 % of control

SMILES: O=C1C=C(Nc2ccccc2)CCC1
- T/C (dose: 50.0 mg/kg/injection, schedule: Q01DX009 (ip), vehicle: saline): 99 % of control
- T/C (dose: 100.0 mg/kg/injection, schedule: Q01DX009 (ip), vehicle: saline): 100 % of control
- T/C (dose: 200.0 mg/kg/injection, schedule: Q01DX009 (ip), vehicle: saline): 103 % of control

SMILES: NCC(O)CSc1ccc(Cl)c(Cl)c1 (stereo not drawn)
- T/C (dose: 50.0 mg/kg/injection, schedule: Q04DX002 (ip), vehicle: saline with Tween-80): 98 % of control
- T/C (dose: 100.0 mg/kg/injection, schedule: Q04DX002 (ip), vehicle: saline with Tween-80): 106 % of control

SMILES: CC(=O)N1C(=O)NC(=O)C1(C)c1ccc(Cl)s1 (stereo not drawn)
- T/C [8]: 92 % of control
- T/C [10]: 97 % of control
- T/C [12]: 100 % of control
- T/C [11]: 113 % of control
- T/C [13]: 100 % of control
- T/C [14]: 106 % of control

SMILES: O=C(/C=C/c1ccc(OCc2ccccc2)cc1)c1ccc(Cl)cc1Cl
- T/C [8]: 91 % of control
- T/C [10]: 89 % of control
- T/C [11]: 89 % of control

SMILES: O=C(O)CCC(=O)CCl
- T/C (dose: 12.0 mg/kg/injection, schedule: Q01DX009 (ip), vehicle: saline): 120 % of control

SMILES: CC[P+]1(c2ccccc2)CCCc2ccc3ccccc3c21 (stereo not drawn)
- T/C (dose: 1.56 mg/kg/injection, schedule: Q01DX009 (ip), vehicle: saline): 116 % of control
- T/C (dose: 3.12 mg/kg/injection, schedule: Q01DX009 (ip), vehicle: saline): 120 % of control
- T/C (dose: 30.0 mg/kg/injection, schedule: Q01DX009 (ip), vehicle: saline): 90 % of control

SMILES: CCC(CC)OC(=O)c1cccc(C)c1
- T/C [9]: 104 % of control
- T/C [12]: 108 % of control
- T/C [13]: 101 % of control
